In ChEMBL document CHEMBL4706477, “Synthesis and Biological Evaluation of Calothrixins B and their Deoxygenated Analogues” (J Med Chem, 2018):

Legend:
[1] = tested on: Jurkat; assay: cells; conditions: Homo sapiens, 48 h
Description: Antiproliferative activity against human Jurkat cells assessed as reduction in cell viability incubated for 48 hrs by sulphorhodamine B assay

[2] = tested on: HeLa; assay: cells; conditions: Homo sapiens, 48 h
Description: Antiproliferative activity against human HeLa cells assessed as reduction in cell viability incubated for 48 hrs by sulphorhodamine B assay

[3] = tested on: SiHa; assay: cells; conditions: Homo sapiens, 48 h
Description: Antiproliferative activity against human SiHa cells assessed as reduction in cell viability incubated for 48 hrs by sulphorhodamine B assay

[4] = tested on: MCF7; assay: cells; conditions: Homo sapiens, MCF7, 48 h
Description: Antiproliferative activity against human MCF7 cells assessed as reduction in cell viability incubated for 48 hrs by sulphorhodamine B assay

[5] = tested on: HCT-116; assay: cells; conditions: Homo sapiens, HCT-116, 48 h
Description: Antiproliferative activity against human HCT-116 cells assessed as reduction in cell viability incubated for 48 hrs by sulphorhodamine B assay

[6] = tested on: HCT-116; assay: cells; conditions: Homo sapiens, HCT-116, 48 h; remark: listed apart in the source
Description: Antiproliferative activity against human HCT-116 p53-/- cells assessed as reduction in cell viability incubated for 48 hrs by sulphorhodamine B assay

[7] = tested on: U-251; assay: cells; conditions: Homo sapiens, U-251, 48 h
Description: Antiproliferative activity against human U-251 cells assessed as reduction in cell viability incubated for 48 hrs by sulphorhodamine B assay

[8] = tested on: NCI-H460; assay: cells; conditions: Homo sapiens, NCI-H460, 48 h
Description: Antiproliferative activity against human NCI-H460 cells assessed as reduction in cell viability incubated for 48 hrs by sulphorhodamine B assay

[9] = tested on: MDA-MB-231; assay: cells; conditions: Homo sapiens, MDA-MB-231, 48 h
Description: Antiproliferative activity against human MDA-MB-231 cells assessed as reduction in cell viability incubated for 48 hrs by sulphorhodamine B assay

[10] = tested on: Calf thymus DNA; assay: Binding affinity to calf thymus DNA assessed as hypochromic effect at 3*10^-5 mol/L by double beam UV-Vis spectroscopic analysis; assay type: nucleic-acid assay; conditions: Bos taurus
[11] = tested on: HEK293; assay: Antiproliferative activity against human HEK293 cells assessed as reduction in cell viability incubated for 48 hrs by sulphorhodamine B assay; assay type: functional
[12] = tested on: A549; assay: Antiproliferative activity against human A549 cells assessed as reduction in cell viability incubated for 48 hrs by sulphorhodamine B assay; assay type: functional

GI50 [1]	GI50 [2]	GI50 [4]	GI50 [5]	GI50 [6]	GI50 [7]	GI50 [8]	GI50 [9]	Activity [10]	GI50 [12]	Structure (SMILES)	GI50 [3]	GI50 [11]
> 4000 nM	390 nM	600 nM	330 nM	> 4000 nM	1830 nM	> 4000 nM	310 nM			COc1cccc2c3c(cnc12)C(=O)c1c([nH]c2ccccc12)C3=O	> 4000 nM	
	530 nM	950 nM	1000 nM		1200 nM	1050 nM	900 nM	38%		Nc1nc2cc(Cl)ccc2c2cc3[nH]c4ccccc4c3cc12	1100 nM	
	10 nM	130 nM	1200 nM		1200 nM	140 nM	1250 nM			Nc1nc2cc(F)ccc2c2cc3[nH]c4ccccc4c3cc12	1350 nM	
> 4000 nM	270 nM	660 nM	> 4000 nM	> 4000 nM	> 4000 nM	2250 nM	400 nM			O=C1c2[nH]c3ccccc3c2C(=O)c2cnc3cc(F)c(Br)cc3c21	> 4000 nM	
> 4000 nM	1400 nM	> 4000 nM	> 50000 nM		> 4000 nM	10000 nM	> 4000 nM		> 4000 nM	c1ccc2c(c1)ncc1cc3[nH]c4ccccc4c3cc12	> 4000 nM	> 4000 nM
	1400 nM	1000 nM	1050 nM		650 nM	1050 nM	1100 nM			Nc1nc2ccccc2c2cc3c(cc12)[nH]c1ccccc13	1300 nM	
> 4000 nM	2000 nM	1350 nM	> 4000 nM	> 4000 nM	> 4000 nM	> 4000 nM	> 4000 nM			O=C1c2[nH]c3ccccc3c2C(=O)c2cnc3cc(F)c(Cl)cc3c21	> 4000 nM	
1500 nM	290 nM	220 nM	700 nM	1130 nM	600 nM	1100 nM	270 nM			O=C1c2[nH]c3ccccc3c2C(=O)c2cnc3ccc(Br)cc3c21	1400 nM	
> 4000 nM	> 4000 nM	360 nM	> 4000 nM	> 4000 nM	> 4000 nM	> 4000 nM	> 4000 nM			COc1cc2ncc3c(c2cc1OC)C(=O)c1[nH]c2ccccc2c1C3=O	> 4000 nM	
> 4000 nM	50 nM	270 nM	30000 nM		> 4000 nM	40 nM	> 4000 nM		> 4000 nM	Cc1c2cnc3cc(F)ccc3c2cc2[nH]c3ccccc3c12	> 4000 nM	> 4000 nM
1500 nM	210 nM	600 nM	1500 nM	2600 nM	2000 nM	1270 nM	1000 nM			O=C1c2[nH]c3ccccc3c2C(=O)c2cnc3cc(Br)ccc3c21	> 4000 nM	
> 4000 nM	> 4000 nM	800 nM	3500 nM	> 4000 nM	> 4000 nM	> 4000 nM	> 4000 nM			O=C1c2cnc3cccc(Cl)c3c2C(=O)c2[nH]c3ccccc3c21	> 4000 nM	
> 4000 nM	> 4000 nM	> 4000 nM	> 50000 nM		> 4000 nM	> 50000 nM	> 4000 nM		> 4000 nM	c1ccc2c(c1)ccc1cc3c(cc12)[nH]c1ccccc13	> 4000 nM	> 4000 nM
> 4000 nM	> 4000 nM	> 4000 nM	630 nM	> 4000 nM	> 4000 nM	> 4000 nM	> 4000 nM			COc1ccc2ncc3c(c2c1)C(=O)c1[nH]c2ccccc2c1C3=O	> 4000 nM	
> 4000 nM	> 4000 nM	110 nM	> 4000 nM	> 4000 nM	> 4000 nM	> 4000 nM	> 4000 nM			O=C1c2[nH]c3ccccc3c2C(=O)c2cnc3cc4c(cc3c21)OCO4	> 4000 nM	
2600 nM	500 nM	500 nM	1200 nM	2000 nM	1500 nM	730 nM	200 nM			O=C1c2cnc3c(Cl)cc(Cl)cc3c2C(=O)c2[nH]c3ccccc3c21	1800 nM	
	800 nM	1000 nM	1000 nM		1050 nM	1000 nM	1000 nM			Nc1nc2ccccc2c2cc3[nH]c4ccccc4c3cc12	1050 nM	
> 4000 nM	1800 nM	> 4000 nM	> 4000 nM	> 4000 nM	> 4000 nM	> 4000 nM	1800 nM			O=C1c2[nH]c3ccccc3c2C(=O)c2cnc3cc(Cl)c(Cl)cc3c21	> 4000 nM	
1400 nM	500 nM	350 nM	420 nM	1500 nM	500 nM	700 nM	170 nM			O=C1c2[nH]c3ccccc3c2C(=O)c2cnc3ccc(Cl)cc3c21	1670 nM	
3550 nM	70 nM	530 nM	1500 nM	2600 nM	2830 nM	1400 nM	360 nM			O=C1c2[nH]c3ccccc3c2C(=O)c2cnc3cc(Cl)ccc3c21	1600 nM	
> 4000 nM	430 nM	> 4000 nM	28000 nM		> 4000 nM	10000 nM	> 4000 nM		> 4000 nM	Clc1ccc2c(c1)ncc1cc3c(cc12)[nH]c1ccccc13	> 4000 nM	> 4000 nM
> 4000 nM	> 4000 nM	> 4000 nM	> 4000 nM	> 4000 nM	> 4000 nM	> 4000 nM	> 4000 nM			O=C1c2cnc3c(Cl)cccc3c2C(=O)c2[nH]c3ccccc3c21	> 4000 nM	

Structure (SMILES)	GI50 [1]	GI50 [2]	GI50 [4]	GI50 [5]	GI50 [6]	GI50 [7]	GI50 [8]	GI50 [9]	Activity [10]	GI50 [12]	GI50 [3]	GI50 [11]
CC[C@@]1(O)C(=O)OCc2c1cc1n(c2=O)Cc2cc3ccccc3nc2-1 [CAMPTOTHECIN]	60 nM	190 nM	60 nM	50 nM	195 nM	10 nM	5.7 nM	400 nM			550 nM	
